Data taken from US11161839B2, “2-quinolone derived inhibitors of BCL6” (Cancer Research Technology Limited, priority 2017, dated 2021).
Like-named read-outs stand apart in the source and are kept apart here.

What was measured:
[1] = target: BCL6-NCOR2(SMRT) corepressor protein-protein interaction (Homo sapiens (Human), UniProt P41182); assay: NanoBRET cell assay in transfected HEK293T cells; type: cell-based; details: HEK293T cells, 6 hr; for IC50: read-out: NanoBRET cell pIC50 (converted)
Description: A cellular nano-Bioluminescence Resonance Energy Transfer (nanoBRET) assay (Promega NanoBRET Nano-Glo Detection System, catalogue number N1662) was used to detect inhibition of the BCL6-NCOR2(SMRT) corepressor protein-protein interaction. DNA encoding full length BCL6 and NCOR2 were inserted into pFC32K.NanoLuc and pFC14K.HaloTag vectors (Promega) to produce C-terminal tagged fusion proteins BCL6-nanoLuc and NCOR2-HaloTag, respectively. […] Frozen transfected HEK293T cells were thawed, centrifuged and freezing medium was replaced by phenol red-free OptiMEM+4% FBS (Life Technology). […] Cells were incubated for 6 hr at 37° C./5% CO2 then NanoBRET furimazine substrate (Promega) was added to give a final concentration of 10 μM. After a short centrifugation the plates were read on an Envision (Perkin Elmer) plate reader equipped with a LUM/D600 Dual mirror, Lum 450/40 nm bandpass and D605 nm longpass filters, with a 0.2 sec reading to determine the BRET ratio. The % inhibition at each test concentration was calculated by normalising the BRET ratio to the appropriate high and low controls.

[2] = target: human BCL6 BTB domain (Trx-6xHis-BCL6) (Homo sapiens (Human), UniProt P41182); assay: HTRF in vitro assay (BCL6 BTB domain / BCOR-AF633 peptide); type: binding; details: for IC50: read-out: HTRF pIC50 (converted)
Protocol: The % inhibition at each concentration was calculated by normalising FRET ratio to the appropriate high (DMSO with all reagents) and low (DMSO without BCL6) controls.

[3] = further generated data (Table 2b)
[4] = further generated data (Table 1b), 1 nM Trx-6xHis-BCL6, 0.5 nM anti-6xHis-Terbium cryptate
[5] = initially generated data (Table 1a), 10 nM Trx-6xHis-BCL6, 1 nM anti-6xHis-Terbium cryptate

SMILES | IC50 [1, 3] | IC50 [2, 4] | HTRF pIC50 [2, 4] | HTRF pIC50 [2, 5] | NanoBRET cell pIC50 [1, 3] | IC50 ([1]; initially generated data (Table 2a))
COC1CCC1Nc1cc(=O)n(C)c2ccc(Nc3ccnc(Cl)c3C#N)cc12 (racemic) [Example 22a, rac-2-chloro-4-((4-(((1R,2S)-2-methoxycyclobutyl)amino)-1-methyl-2-oxo-1,2-dihydroquinolin-6-yl)amino)nicotinonitrile or rac-2-chloro-4-((4-(((1R,2R)-2-methoxycyclobutyl)amino)-1-methyl-2-oxo-1,2-dihydroquinolin-6-yl)amino)nicotinonitrile] | 2.34 µM | 0.251 µM | – | – | – | –
CNC(=O)c1cc(Nc2ccc3c(c2)c(NC2CCC2OC)cc(=O)n3C)c(C#N)c(Cl)n1 (racemic) [Example 23a, rac-6-chloro-5-cyano 4-((4-(((1R,2R)-2-methoxycyclobutyl)amino)-1-methyl-2-oxo-1,2-dihydroquinolin-6-yl)amino)-N-methylpicolinamide or rac-6-chloro-5-cyano-4-((4-(((1R,2S)-2-methoxycyclobutyl)amino)-1-methyl-2-oxo-1,2-dihydroquinolin-6-yl)amino)-N-methylpicolinamide] | 6.76 µM | 0.38 µM | – | – | – | –
CC(Nc1cc(=O)n(C)c2ccc(Nc3nc(N4CCC(F)(F)C(CO)C4)ncc3Cl)cc12)c1ncccn1 (single isomer, unassigned) [Example 26d] | 3.8 µM | 0.501 µM | – | – | – | –
CC(Nc1cc(=O)n(CCN2C(=O)CCC2=O)c2ccc(Nc3ccnc(Cl)c3C#N)cc12)c1ncccn1 (stereo not shown) [Example 1c, 2-chloro-4-[[1-[2-(2,5-dioxopyrrolidin-1-yl)ethyl]-2-oxo-4-(1-pyrimidin-2-ylethylamino)-6-quinolyl]amino]pyridine-3-carbonitrile] | 22.4 µM | – | 6.73 | 6.63 | – | –
CC(Nc1cc(=O)n(CC2CCOCC2)c2ccc(Nc3ccnc(Cl)c3C#N)cc12)c1ncccn1 (stereo not shown) [Example 1d, 2-chloro-4-[[2-oxo-4-(1-pyrimidin-2-ylethylamino)-1-(tetrahydropyran-4-ylmethyl)-6-quinolyl]amino]pyridine-3-carbonitrile] | – | – | 6.58 | 6.58 | 5.45 | 3.55 µM
Cc1cc(C(C)Nc2cc(=O)n(C)c3ccc(Nc4ccnc(Cl)c4C#N)cc23)no1 (stereo not shown) [Example 1m, 2-chloro-4-[[1-methyl-4-[1-(5-methylisoxazol-3-yl)ethylamino]-2-oxo-6-quinolyl]amino]pyridine-3-carbonitrile] | 5.37 µM | – | 5.88 | 6.15 | – | –
CNC(=O)c1cc(Nc2ccc3c(c2)c(NC(C)(C)c2ncccn2)cc(=O)n3C)c(C#N)c(Cl)n1 [Example 1u, 6-chloro-5-cyano-N-methyl-4-[[1-methyl-4-[(1-methyl-1-pyrimidin-2-yl-ethyl)amino]-2-oxo-6-quinolyl]amino]pyridine-2-carboxamide] | 0.525 µM | – | 7.51 | 7.44 | – | –
CNC(=O)c1cc(Nc2ccc3c(c2)c(NC(C)c2ncccn2)cc(=O)n3C)c(C#N)c(Cl)n1 (stereo not shown) [Example 1v, 6-chloro-5-cyano-N-methyl-4-[[1-methyl-2-oxo-4-(1-pyrimidin-2-ylethylamino)-6-quinolyl]amino]pyridine-2-carboxamide] | 0.933 µM | – | 7.31 | 6.76 | – | –
Cc1cc(Nc2ccc3c(c2)c(NC(C)c2ncccn2)cc(=O)n3C)c(C#N)c(Cl)n1 (stereo not shown) [Example 1w, 2-chloro-6-methyl-4-[[1-methyl-2-oxo-4-(1-pyrimidin-2-ylethylamino)-6-quinolyl]amino]pyridine-3-carbonitrile] | 1.58 µM | – | 6.90 | 6.29 | – | –
Cn1c(=O)cc(NC(C)(C)c2ncccn2)c2cc(Nc3ccnc(Cl)c3C#N)cnc21 [Example 1x, 2-chloro-4-[[8-methyl-5-[(1-methyl-1-pyrimidin-2-yl-ethyl)amino]-7-oxo-1,8-naphthyridin-3-yl]amino]pyridine-3-carbonitrile] | 1.58 µM | – | 7.20 | 6.68 | – | –
C[C@@H](CO)Nc1cc(=O)n(C)c2ccc(Nc3ccnc(Cl)c3C#N)cc12 [Example 3g, (S)-2-Chloro-4-((4-((1-hydroxypropan-2-yl)amino)-1-methyl-2-oxo-1,2-dihydroquinolin-6-yl)amino)nicotinonitrile] | 20.9 µM | – | 6.39 | 6.43 | – | –
CC(Nc1cc(=O)n(C)c2ccc(Nc3ccnc(Cl)c3Cl)cc12)c1ncccn1 (stereo not shown) [Example 6a, 6-[(2,3-Dichloro-4-pyridyl)amino]-1-methyl-4-(1-pyrimidin-2-ylethylamino)quinolin-2-one] | 2.82 µM | – | 6.56 | 6.36 | – | –
CC(Nc1nc(=O)n(C)c2ccc(Nc3ccnc(Cl)c3Cl)cc12)c1ncccn1 (stereo not shown) [Example 6c, 6-((2,3-dichloropyridin-4-yl)amino)-1-methyl-4-((1-(pyrimidin-2-yl)ethyl)amino)quinazolin-2(1H)-one] | 5.5 µM | – | 6.57 | – | – | –
C[C@@H](Nc1nc(=O)n(C)c2ccc(Nc3ccnc(Cl)c3Cl)cc12)C1CC1 [Example 6d, (R)-4-((1-cyclopropylethyl)amino)-6-((2,3-dichloropyridin-4-yl)amino)-1-methylquinazolin-2(1H)-one] | 1.82 µM | – | 6.09 | – | – | –
CC(Nc1cc(=O)n(CC2CC2)c2ccc(Nc3ccnc(Cl)c3Cl)cc12)c1ncccn1 (stereo not shown) [Example 6g, 1-(cyclopropylmethyl)-6-[(2,3-dichloro-4-pyridyl)amino]-4-(1-pyrimidin-2-ylethylamino)quinolin-2-one] | 7.41 µM | – | 6.25 | – | – | –
Cn1c(=O)cc(NC(C)(C)c2ncc(C3CC3)cn2)c2cc(Nc3ccnc(Cl)c3Cl)ccc21 [Example 6j, 4-((2-(5-cyclopropylpyrimidin-2-yl)propan-2-yl)amino)-6-((2,3-dichloropyridin-4-yl)amino)-1-methylquinolin-2(1H)-one] | 1.2 µM | – | 6.84 | – | – | –
C[C@@H]1CN(c2cnc(C(C)(C)Nc3cc(=O)n(C)c4ccc(Nc5ccnc(Cl)c5C#N)cc34)nc2)C[C@H](C)O1 [Example 7a, 2-Chloro-4-((4-((2-(5-((2R,6S)-2,6-dimethylmorpholino)pyrimidin-2-yl)propan-2-yl)amino)-1-methyl-2-oxo-1,2-dihydroquinolin-6-yl)amino)nicotinonitrile] | 0.347 µM | – | 7.91 | – | – | –
CNC(=O)c1cc(Nc2ccc3c(c2)c(NC(C)C2CC2)cc(=O)n3C)c(C#N)c(Cl)n1 (stereo not shown) [Example 7b, 6-chloro-5-cyano-4-((4-((1-cyclopropylethyl)amino)-1-methyl-2-oxo-1,2-dihydroquinolin-6-yl)amino)-N-methylpicolinamide] | 1.12 µM | 0.288 µM | – | – | – | –
CNC(=O)c1cc(Nc2ccc3c(c2)c(NC(C)(C)COC)cc(=O)n3C)c(C#N)c(Cl)n1 [Example 7d, 6-chloro-5-cyano-4-[[4-[(2-methoxy-1,1-dimethyl-ethyl)amino]-1-methyl-2-oxo-6-quinolyl]amino]-N-methyl-pyridine-2-carboxamide] | 0.977 µM | – | 6.85 | – | – | –
Cn1c(=O)cc(NC(C)(C)c2ncccn2)c2cc(Nc3cc(C(=O)N4CCC4)nc(Cl)c3C#N)ccc21 [Example 8a, 6-(Azetidine-1-carbonyl)-2-chloro-4-((1-methyl-2-oxo-4-((2-(pyrimidin-2-yl)propan-2-yl)amino)-1,2-dihydroquinolin-6-yl)amino)nicotinonitrile] | 0.55 µM | – | 7.78 | – | – | –
Cn1c(=O)cc(NC(C)(C)c2ncc(C3CC3)cn2)c2cc(Nc3cc(C(=O)N4CCC4)nc(Cl)c3C#N)ccc21 [Example 8b, 6-(azetidine-1-carbonyl)-2-chloro-4-((4-((2-(5-cyclopropylpyrimidin-2-yl)propan-2-yl)amino)-1-methyl-2-oxo-1,2-dihydroquinolin-6-yl)amino)nicotinonitrile] | 0.741 µM | – | 7.86 | – | – | –
CNC(=O)c1cc(Nc2ccc3c(c2)c(NC2(C#N)CC2)cc(=O)n3C)c(C#N)c(Cl)n1 [Example 24a, 6-chloro-5-cyano-4-((4-((1-cyanocyclopropyl)amino)-1-methyl-2-oxo-1,2-dihydroquinolin-6-yl)amino)-N-methylpicolinamide] | – | – | 6.84 | – | – | –
C[C@@H](Nc1cc(=O)n(C)c2ccc(Nc3nc(N4CCC4)ncc3Cl)cc12)C1CC1 [Example 26a, (R)-6-((2-(azetidin-1-yl)-5-chloropyrimidin-4-yl)amino)-4-((1-cyclopropylethyl)amino)-1-methylquinolin-2(1H)-one: formic acid (1:1)] | – | – | 6.25 | – | – | –
C[C@@H]1C[C@H](C)CN(c2ncc(Cl)c(Nc3ccc4c(c3)c(NC(C)(C)c3ncccn3)nc(=O)n4C)n2)C1 [Example 26g, 6-[[5-chloro-2-[(3R,5S)-3,5-dimethyl-1-piperidyl]pyrimidin-4-yl]amino-1-methyl-4-[(1-methyl-1-pyrimidin-2-yl)ethyl)amino]quinazolin-2-one:formic acid (1:1)] | – | – | 6.54 | – | – | –
